Measured values published in patent publication US10087187B2, “Imidazopyridazine derivatives as PI3KB inhibitors” (Janssen Pharmaceutica NV, priority 2014, dated 2018).

Assays:
[1] = tested on: Akt phosphorylated at Ser473 in PC-3 cells; assay: Cellular assay: phosphorylation of Akt (Ser473) in PC-3 cells, MSD ELISA; assay type: cell-based; conditions: Homo sapiens, PC-3, 1 h, 60 min incubation with compound, read-out: IC50 pAkt_S473
Outline: (§1)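 PC-3 cells cultured 24 h in DMEM/10% FCS were exposed to compound for 60 min at 37° C, with 0.3% DMSO. Lysates were analysed by MSD electrochemiluminescent sandwich ELISA using phospho-Ser473 or phospho-Thr308 capture and anti-total Akt detection antibodies. IC50 was derived by nonlinear sigmoidal fitting of % inhibition over five concentrations.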

MTOR_h = MTOR_h (Homo sapiens (Human), UniProt P42345); assay: KINOMEscan enzyme binding assay, MTOR; conditions: DiscoveRx
Protocol: (§2) Enzyme Binding Assays (KINOMEscan®) Kinase enzyme binding affinities of compounds disclosed herein were determined using the KINOMEscan technology performed by DiscoveRx Corporation, San Diego, Calif., USA (www.kinomescan.com).

PIK3Cγ_h = PIK3Cγ_h (Homo sapiens (Human), UniProt P48736); assay: KINOMEscan enzyme binding assay, PIK3Cγ; conditions: DiscoveRx
Protocol: as §2

[2] = tested on: Akt phosphorylated at Thr308 in PC-3 cells; assay: Cellular assay: phosphorylation of Akt (Thr308) in PC-3 cells, MSD ELISA; assay type: cell-based; conditions: Homo sapiens, PC-3, 1 h, 60 min incubation with compound, read-out: IC50 pAkt_Thr308
Outline: as §1

PIK3Cδ_h = PIK3Cδ_h (Homo sapiens (Human), UniProt O00329); assay: KINOMEscan enzyme binding assay, PIK3Cδ; conditions: DiscoveRx
Protocol: as §2, with “(www.kinomescan.com). Table A reports the obtained Kd values (nM), with the Kd being the inhibitor binding constant: […]” for “(www.kinomescan.com).”

PIK3Cβ_h = PIK3Cβ_h (Homo sapiens (Human), UniProt P42338); assay: KINOMEscan enzyme binding assay, PIK3Cβ; conditions: DiscoveRx
Protocol: as §2, with “(www.kinomescan.com). Table A reports the obtained Kd values (nM), with the Kd being the inhibitor binding constant: […]” for “(www.kinomescan.com).”

PIK3Cα_h = PIK3Cα_h (Homo sapiens (Human), UniProt P42336); assay: KINOMEscan enzyme binding assay, PIK3Cα; conditions: DiscoveRx
Protocol: as §2

Chain of PIK3Cα_h (P42336 whole entry): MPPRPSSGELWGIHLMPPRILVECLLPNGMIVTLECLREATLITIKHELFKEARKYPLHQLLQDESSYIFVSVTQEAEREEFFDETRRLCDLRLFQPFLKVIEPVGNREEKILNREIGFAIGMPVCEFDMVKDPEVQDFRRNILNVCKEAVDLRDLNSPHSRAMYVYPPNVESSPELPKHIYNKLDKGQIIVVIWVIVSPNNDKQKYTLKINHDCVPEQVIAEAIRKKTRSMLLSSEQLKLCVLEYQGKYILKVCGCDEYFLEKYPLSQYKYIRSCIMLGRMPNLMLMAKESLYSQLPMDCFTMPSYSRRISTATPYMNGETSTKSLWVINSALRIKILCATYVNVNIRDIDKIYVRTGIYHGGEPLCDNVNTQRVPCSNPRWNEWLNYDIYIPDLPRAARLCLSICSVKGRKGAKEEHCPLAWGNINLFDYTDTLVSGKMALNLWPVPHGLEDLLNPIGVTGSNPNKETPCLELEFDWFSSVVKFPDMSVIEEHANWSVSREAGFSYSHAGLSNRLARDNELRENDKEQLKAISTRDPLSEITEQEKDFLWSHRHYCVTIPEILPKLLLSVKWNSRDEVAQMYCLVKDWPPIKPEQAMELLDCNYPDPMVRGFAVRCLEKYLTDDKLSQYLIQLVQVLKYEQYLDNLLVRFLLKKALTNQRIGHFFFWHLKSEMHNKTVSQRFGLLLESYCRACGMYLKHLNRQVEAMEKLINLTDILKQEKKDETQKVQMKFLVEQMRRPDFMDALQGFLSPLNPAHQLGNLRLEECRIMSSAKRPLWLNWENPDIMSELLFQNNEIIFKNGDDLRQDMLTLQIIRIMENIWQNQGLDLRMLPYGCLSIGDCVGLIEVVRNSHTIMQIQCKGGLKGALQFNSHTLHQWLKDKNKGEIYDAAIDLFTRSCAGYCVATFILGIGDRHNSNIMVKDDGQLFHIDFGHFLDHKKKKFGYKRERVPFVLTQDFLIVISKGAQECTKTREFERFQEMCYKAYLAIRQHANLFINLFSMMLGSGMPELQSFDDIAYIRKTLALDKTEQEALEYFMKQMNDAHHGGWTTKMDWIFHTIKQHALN
Chain of PIK3Cγ_h (P48736 whole entry): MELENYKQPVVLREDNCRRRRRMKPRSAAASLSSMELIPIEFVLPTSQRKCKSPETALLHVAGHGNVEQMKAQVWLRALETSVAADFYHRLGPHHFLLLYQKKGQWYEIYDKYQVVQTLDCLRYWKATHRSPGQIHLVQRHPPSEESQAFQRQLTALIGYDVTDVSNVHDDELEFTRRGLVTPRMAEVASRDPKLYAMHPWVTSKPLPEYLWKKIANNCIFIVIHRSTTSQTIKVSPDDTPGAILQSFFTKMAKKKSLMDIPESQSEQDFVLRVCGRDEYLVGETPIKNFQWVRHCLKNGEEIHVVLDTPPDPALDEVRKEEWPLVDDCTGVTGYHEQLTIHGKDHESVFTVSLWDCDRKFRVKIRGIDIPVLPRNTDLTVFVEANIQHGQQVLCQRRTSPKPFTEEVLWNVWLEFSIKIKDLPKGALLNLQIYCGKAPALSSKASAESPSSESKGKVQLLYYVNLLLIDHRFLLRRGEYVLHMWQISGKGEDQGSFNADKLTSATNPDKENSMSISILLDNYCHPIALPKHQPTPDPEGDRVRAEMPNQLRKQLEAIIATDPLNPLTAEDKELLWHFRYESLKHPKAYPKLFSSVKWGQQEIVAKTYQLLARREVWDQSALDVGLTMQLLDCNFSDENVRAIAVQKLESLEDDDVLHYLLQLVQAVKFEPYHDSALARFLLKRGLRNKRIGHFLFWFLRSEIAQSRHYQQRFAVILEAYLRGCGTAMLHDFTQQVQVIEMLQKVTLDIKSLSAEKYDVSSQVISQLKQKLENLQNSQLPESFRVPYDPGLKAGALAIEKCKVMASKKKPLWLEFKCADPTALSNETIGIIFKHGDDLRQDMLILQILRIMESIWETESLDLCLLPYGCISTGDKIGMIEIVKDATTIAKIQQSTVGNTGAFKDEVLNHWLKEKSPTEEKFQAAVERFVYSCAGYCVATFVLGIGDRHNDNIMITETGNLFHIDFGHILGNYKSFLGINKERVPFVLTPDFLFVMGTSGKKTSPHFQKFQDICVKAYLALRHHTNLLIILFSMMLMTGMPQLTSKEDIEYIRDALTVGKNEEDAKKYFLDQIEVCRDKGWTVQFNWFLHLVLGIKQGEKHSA
Chain of PIK3Cδ_h (O00329 whole entry): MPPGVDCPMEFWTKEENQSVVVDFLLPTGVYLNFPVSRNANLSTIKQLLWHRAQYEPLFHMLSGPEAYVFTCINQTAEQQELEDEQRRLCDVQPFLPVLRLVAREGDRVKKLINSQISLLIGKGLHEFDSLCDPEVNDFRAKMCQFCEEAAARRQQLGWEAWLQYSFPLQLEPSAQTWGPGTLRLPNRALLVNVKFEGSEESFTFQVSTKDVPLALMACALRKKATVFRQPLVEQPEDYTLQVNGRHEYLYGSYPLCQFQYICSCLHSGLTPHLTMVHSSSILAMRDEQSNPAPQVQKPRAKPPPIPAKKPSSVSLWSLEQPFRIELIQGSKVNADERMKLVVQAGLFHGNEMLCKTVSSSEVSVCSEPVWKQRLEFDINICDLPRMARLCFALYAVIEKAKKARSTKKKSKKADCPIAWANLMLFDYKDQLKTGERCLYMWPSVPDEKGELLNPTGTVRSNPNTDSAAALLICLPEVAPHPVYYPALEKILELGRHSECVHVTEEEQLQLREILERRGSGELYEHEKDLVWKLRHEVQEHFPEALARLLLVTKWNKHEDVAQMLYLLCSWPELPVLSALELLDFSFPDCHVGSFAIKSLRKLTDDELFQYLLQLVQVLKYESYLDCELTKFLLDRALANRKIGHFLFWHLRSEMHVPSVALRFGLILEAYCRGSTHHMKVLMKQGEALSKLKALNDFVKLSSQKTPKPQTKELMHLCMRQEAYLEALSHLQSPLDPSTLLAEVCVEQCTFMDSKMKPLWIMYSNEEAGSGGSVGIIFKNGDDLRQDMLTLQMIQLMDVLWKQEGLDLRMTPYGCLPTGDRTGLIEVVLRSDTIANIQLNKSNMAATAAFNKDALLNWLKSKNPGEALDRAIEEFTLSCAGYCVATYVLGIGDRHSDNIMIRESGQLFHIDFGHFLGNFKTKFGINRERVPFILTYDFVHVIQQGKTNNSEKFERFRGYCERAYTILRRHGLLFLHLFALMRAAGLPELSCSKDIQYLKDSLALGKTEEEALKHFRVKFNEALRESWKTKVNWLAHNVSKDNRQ
Chain of PIK3Cβ_h (P42338 whole entry): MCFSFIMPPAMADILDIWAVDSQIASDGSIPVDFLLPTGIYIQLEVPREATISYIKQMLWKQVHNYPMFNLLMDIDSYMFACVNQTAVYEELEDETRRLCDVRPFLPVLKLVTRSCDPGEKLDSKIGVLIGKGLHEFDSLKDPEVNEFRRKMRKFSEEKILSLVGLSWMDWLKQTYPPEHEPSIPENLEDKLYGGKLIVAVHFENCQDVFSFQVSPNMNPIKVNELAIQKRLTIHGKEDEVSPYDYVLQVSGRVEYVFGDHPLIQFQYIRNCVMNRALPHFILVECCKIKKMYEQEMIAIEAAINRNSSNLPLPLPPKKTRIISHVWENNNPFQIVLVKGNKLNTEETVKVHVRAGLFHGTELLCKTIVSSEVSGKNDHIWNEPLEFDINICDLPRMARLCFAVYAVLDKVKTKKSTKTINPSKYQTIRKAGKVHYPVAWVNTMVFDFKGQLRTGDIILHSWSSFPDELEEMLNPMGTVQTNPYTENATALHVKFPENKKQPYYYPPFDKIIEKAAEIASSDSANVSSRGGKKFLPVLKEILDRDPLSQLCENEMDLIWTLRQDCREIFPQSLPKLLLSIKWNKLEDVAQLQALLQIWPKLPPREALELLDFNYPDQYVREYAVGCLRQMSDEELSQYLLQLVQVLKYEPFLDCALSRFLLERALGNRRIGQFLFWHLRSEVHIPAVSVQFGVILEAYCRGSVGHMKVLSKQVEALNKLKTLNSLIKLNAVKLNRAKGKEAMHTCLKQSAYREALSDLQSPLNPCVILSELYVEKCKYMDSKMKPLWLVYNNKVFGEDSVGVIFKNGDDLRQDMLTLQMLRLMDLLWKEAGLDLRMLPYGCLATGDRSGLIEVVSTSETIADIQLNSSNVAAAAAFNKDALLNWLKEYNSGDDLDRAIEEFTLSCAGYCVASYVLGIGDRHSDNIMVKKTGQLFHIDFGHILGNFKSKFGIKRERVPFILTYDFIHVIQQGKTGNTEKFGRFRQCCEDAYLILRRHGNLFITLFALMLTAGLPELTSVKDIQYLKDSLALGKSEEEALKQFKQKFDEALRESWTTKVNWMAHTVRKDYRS

IC50 [1] [nM]	Kd (MTOR_h) [nM]	Kd (PIK3Cγ_h) [nM]	IC50 [2] [nM]	Kd (PIK3Cδ_h) [nM]	Kd (PIK3Cβ_h) [nM]	Kd (PIK3Cα_h) [nM]	SMILES
> 513	> 30200	12300	~513	200	7	3390	Cc1nc2c(C(=O)O)cc(C3=CCOCC3)nn2c1Cc1cccc(C(F)(F)F)c1C [Compound 29]
~37	1700	955	22	12	7	275	Cc1nc2c(-c3cnc[nH]3)cc(N3CCOCC3)nn2c1Nc1cccc(C(F)(F)F)c1CN1CCOCC1 [Compound 41]
110	> 30200	30200	~74	35	10	22400	Cc1nc2c(N)cc(N3CCOCC3)nn2c1Nc1cccc(C(F)(F)F)c1CN1CCCC1 [Compound 62]
64	20600	23000	49	276	3	20900	Cc1c(Cc2c(CCO)nc3c(N)cc(N4CCOCC4)nn23)cccc1C(F)(F)F [Compound 23]
~331	21700	4050	195	58	0.9	669	Cc1nc2c(C(=O)O)cc(N3CCOCC3)nn2c1Nc1cccc(C(F)(F)F)c1C [Compound 36]
219	> 30200	9770	~148	16	0.2	7240	Cc1cccc(Nc2c(C)nc3c(N)cc(N4CCOCC4)nn23)c1C1CCNCC1 [Compound 60]
43	2490	3360	37	147	3	1110	Cc1c(Cc2c(CCO)nc3c(-c4c[nH]cn4)cc(N4CCOCC4)nn23)cccc1C(F)(F)F [Compound 24]
148	178	617	50	240	9	1580	Cc1c(Cc2c(CO)nc3c(-c4ccn[nH]4)cc(N4CCOCC4)nn23)cccc1C(F)(F)F [Compound 21]
324	> 30200	> 30200	222	2380	513	> 30200	Cc1nc2c(N)cc(N3CCOCC3)nn2c1Cc1cccc2c1CN(C(C)C)CC2 [Compound 110]
> 513	19500	13200	> 513	117	10	1780	Cc1nc2c(C(=O)O)cc(N3CCOCC3)nn2c1Nc1ccccc1N1CCOCC1 [Compound 86]
50	5250	> 30200	~49	194	1.2	> 10000	Cc1c(Cc2c(CO)nc3c(N)cc(N4CCOCC4)nn23)cccc1C(F)(F)F [Compound 14c]
~339	> 30200	7760	170	47	2	3310	Cc1nc2c(N)cc(N3CCOCC3)nn2c1Nc1cccc(C(F)(F)F)c1CN1CCS(=O)(=O)CC1 [Compound 43]
> 513	9550	3550	~263	56	0.5	525	Cc1nc2c(C(=O)O)cc(N3CCOCC3)nn2c1Cc1cccc(Cl)c1C [Compound 13]
33	> 30200	> 30200	11	59	2	> 30200	CC(=O)NCc1nc2c(-c3ncc[nH]3)cc(N3CCOCC3)nn2c1Cc1cccc(C(F)(F)F)c1C [Compound 18]
